Holding throughout (experiment): Cancer cell growth, Cell Titer-Glo cell viability assay, 72 hours
Holding throughout (assay type): cell-based
For orientation: Cellular ATP, detected with luciferase, serves as a proxy for viable cell number.

In test [1] the test system is human non-small cell lung cancer cell H1975. Conditions: NCI-H1975, H1975, 72 hours. The text has this: (§1) In the examples, we used acute myelocytic leukemia (AML) OCI-AML-3, acute promyelocytic leukemia cell line NB-4, MDS-RAEB (myelodysplastic syndrome-excess blasts type) cell line SKM-1, human leukemia cell Nomo-1, acute myeloid leukemia cell line MOLM14, acute myeloid leukemia cell line MOLM13, acute myeloid leukemia cell line MV4-11, acute myeloid leukemia cell line HL-60, acute myeloid leukemia cell line OCI-AML-2, histiocytic lymphoma U-937, acute B cell leukemia cell line MEC-1, acute B cell leukemia cell line MEC-2, acute megakaryoblastic leukemia CMK, hamster lung cell CHL, hamster ovary cell CHO, human non-small cell lung cancer cell H1975, human non-small cell lung cancer cell H358, human small cell lung cancer cell H209, human lung adenocarcinoma cell H1395, human non-small cell lung cancer cell PC-9, human lung cancer cell H3122, human non-small cell lung cancer cell H2122, human non-small cell lung cancer cell H1915, human lung adenocarcinoma cell H1355, human non-small cell lung cancer cell HCC827, human breast cancer cell MDA-MB-231, human breast cancer cell MDA-MB-468, human breast cancer cell MCF-7, human breast cancer cell T47D, human breast cancer cell SK-Br-3, the above cells were purchased from ATCC.
(§2) Cell Titer-Glo® (Promega, USA) chemical self-luminescence cell viability assay kit was used to detect the number of viable cells by quantitatively measuring ATP in living cells, according to which to calculate GI50 and IC50.

The test system of test [2] is human breast cancer cell MCF-7. Conditions: MCF7, MCF-7, 72 hours.
Description: as §1, §2

For test [3], the system named is human lung adenocarcinoma cell H1355. Conditions: NCI-H1355, H1355, 72 hours.
Description: as §1, §2

For test [4], the system named is human breast cancer cell MDA-MB-231. The note with it: MDA-MB-231, 72 hours.
Description: as §1, §2

Test [5] has as its system human breast cancer cell MDA-MB-468. Conditions: MDA-MB-468, 72 hours.
Description: as §1, §2

The test system of test [6] is human non-small cell lung cancer cell H358. The note with it: NCI-H358, H358, 72 hours.
Description: as §1, §2

In test [7] the test system is human small cell lung cancer cell H209. Conditions: NCI-H209, H209, 72 hours.
Description: as §1, §2

Test [8] deals with human non-small cell lung cancer cell PC-9. Conditions: PC-9, 72 hours.
Description: as §1, §2

In test [9] the test system is human non-small cell lung cancer cell H1915. Conditions: NCI-H1915, H1915, 72 hours.
Description: as §1, §2

Test [10] has as its system human non-small cell lung cancer cell H2122. The note with it: NCI-H2122, H2122, 72 hours.
Description: as §1, §2

Test [11] has as its system human breast cancer cell T47D.
Description: as §1, §2

Test [12] deals with human lung cancer cell H3122. Conditions: NCI-H3122, H3122, 72 hours.
Description: as §1, §2

Test [13] concerns human lung adenocarcinoma cell H1395. The note with it: NCI-H1395, H1395, 72 hours.
Description: as §1, §2

Test [14] relates to human non-small cell lung cancer cell HCC827. Conditions: HCC827, 72 hours.
Description: as §1, §2

Test [15] deals with human breast cancer cell SK-Br-3. The note with it: SK-Br-3, 72 hours.
Description: as §1, §2

The test system of test [16] is acute myeloid leukemia cell line MV4-11. Conditions: Homo sapiens; MV4-11, 72 hours.
Description: as §1, §2

For test [17], the system named is MDS-RAEB (myelodysplastic syndrome-excess blasts type) cell line SKM-1. Conditions: Homo sapiens; SKM-1, 72 hours.
Description: as §1, §2

In test [18] the test system is acute myeloid leukemia cell line MOLM14. Conditions: Homo sapiens; MOLM-14, 72 hours.
Description: as §1, §2

The subject of test [19] is acute B cell leukemia cell line MEC-2. The note with it: MEC2; MEC-2, 72 hours.
Description: as §1, §2

The subject of a further test is hamster ovary cell CHO. Conditions: CHO, 72 hours.
Description: as §1, §2

Test [20] relates to acute myeloid leukemia cell line OCI-AML-2. The note with it: Homo sapiens; OCI-AML2, 72 hours.
Description: as §1, §2

The test system of test [21] is acute promyelocytic leukemia cell line NB-4. Conditions: NB4, 72 hours.
Description: as §1, §2

Test [22] has as its system acute myeloid leukemia cell line HL-60. Conditions: Homo sapiens; HL-60, 72 hours.
Description: as §1, §2

Test [23] deals with human leukemia cell Nomo-1. Conditions: Homo sapiens; Nomo-1, 72 hours.
Description: as §1, §2

The test system of test [24] is acute B cell leukemia cell line MEC-1. Conditions: Homo sapiens, MEC1; MEC-1, 72 hours.
Description: as §1, §2

Test [25] has as its system histiocytic lymphoma U-937. Conditions: Homo sapiens; U-937, 72 hours.
Description: as §1, §2

The next test concerns hamster lung cell CHL. Conditions: CHL, 72 hours.
Description: as §1, §2

The subject of test [26] is acute megakaryoblastic leukemia CMK.
Description: as §1, §2

The subject of test [27] is acute myeloid leukemia cell line MOLM13. Conditions: Homo sapiens; MOLM-13, 72 hours.
Description: as §1, §2

In test [28] the test system is acute myelocytic leukemia (AML) OCI-AML-3. Conditions: Homo sapiens, OCI-AML-3; OCI-AML3, 72 hours.
Description: as §1, §2

Usually IC50 stands for the midpoint of a concentration-inhibition curve. A higher IC50 goes with weaker potency. On to `CC(=O)c1c(C)c2cnc(Nc3ccc(N4CCNCC4)cn3)nc2n(C2CCCC2)c1=O` [Palbociclib, reference compound], for which the IC50 in test [1] is more than 10000 nM; in test [2] it was 1700 nM; in test [3], approximately 10000 nM; in [4], 5100 nM; in test [5], 2700 nM; in test [6], 6600 nM. Besides, the IC50 is more than 10000 nM in test [7]; more than 10000 nM in test [8]; 3600 nM in [9]; 1600 nM in test [10]; 4100 nM in [11]; 1200 nM in [12]. In addition, the IC50 is more than 10000 nM in test [13], more than 10000 nM in test [14] and 3200 nM in test [15].

For orientation: GI50 means the concentration that inhibits growth by half. Lower therefore signals more potent growth inhibition. Take `COCCN[C@H]1CC[C@H](Nc2cc(-c3csc(NCC4CC4)n3)c(Cl)cn2)CC1` [Compound 13, (1r,4r)-N^1-(5-chloro-4-(2-((cyclopropylmethyl)amino)thiazol-4-yl)pyridin-2-yl)-N^4-(2-methoxyethyl)cyclohexane-1,4-diamine]: the GI50 in test [16] worked out at 740 nM; in test [17], 260 nM; in [18] it was 330 nM; in test [19], 660 nM; in the test on hamster ovary cell CHO, 770 nM; in [20], 600 nM. The GI50 in [21] is 340 nM; in [22] it was 320 nM; in [23] it was 870 nM; in test [24], 890 nM; in test [25], 320 nM; with hamster lung cell CHL it was 1400 nM. Besides, the GI50 turned out to be 1100 nM in test [26], 440 nM in test [27] and 420 nM in [28].

Turning to `COCCN[C@H]1CC[C@H](Nc2cc(-c3csc(NCc4ccccc4)n3)c(Cl)cn2)CC1` [Compound 11, (1r,4r)-N^1-(4-(2-(benzylamino)thiazol-4-yl)-5-chloropyridin-2-yl)-N^4-(2-methoxyethyl)cyclohexane-1,4-diamine], the GI50 in test [16] amounted to 330 nM; in test [17], 170 nM; in [18] it was 160 nM; in test [19] it was 320 nM; in the test on hamster ovary cell CHO, 370 nM; in test [20] it was 330 nM. Also, the GI50 in [21] was 270 nM; in [22], 73 nM; in [23], 960 nM; in test [24], 470 nM; in test [25], 220 nM; in the test on hamster lung cell CHL, 1000 nM. In addition, the GI50 is 470 nM in [26], 280 nM in [27] and 220 nM in test [28].

As to `COC[C@@H](C)N[C@H]1CC[C@H](Nc2cc(-c3csc(NCC4CCOCC4)n3)c(Cl)cn2)CC1` [Compound 6, (1R,4r)-N^1-(5-chloro-4-(2-(((tetrahydro-2H-pyran-4-yl)methyl)amino)thiazol-4-yl)pyridin-2-yl)-N^4-((R)-1-methoxypropan-2-yl)cyclohexane-1,4-diamine], the GI50 in [16] amounted to 140 nM; in [17] it was 97 nM; in test [18] it was 110 nM; in [19], 130 nM; in the test with hamster ovary cell CHO, 400 nM; in test [20] it was 120 nM. Besides, the GI50 came out at 110 nM in test [21]; 65 nM in test [22]; 290 nM in test [23]; 310 nM in [24]; 110 nM in test [25]; 1100 nM with hamster lung cell CHL. Also, the values for the GI50 in [26], in [27] and in [28] were 350 nM, 130 nM and 150 nM, respectively.

As for `O=C(Nc1cc(-c2csc(NCC3CCOCC3)n2)c(Cl)cn1)c1ccc(F)cc1` [Compound 8, N-(5-chloro-4-(2-(((tetrahydro-2H-pyran-4-yl)methyl)amino)thiazol-4-yl)pyridin-2-yl)-4-fluorobenzamide], the GI50 in test [16] turned out to be 550 nM; in test [17] it was 150 nM; in test [18] it was 530 nM; in test [19] it was 830 nM; in the test with hamster ovary cell CHO, 1600 nM; in test [20], 2900 nM. The GI50 in test [21] was 220 nM; in test [22], 310 nM; in test [23], 1000 nM; in [24], 3600 nM; in test [25], 1400 nM; in the test on hamster lung cell CHL, 930 nM. The concentration for 50% growth inhibition (GI50) in test [26] worked out at 150 nM; in test [27], 200 nM; in test [28] it was 720 nM.

For `CCc1cnn2c(NCc3ccc[n+]([O-])c3)cc(N3CCCC[C@H]3CCO)nc12` [Dinaciclib, reference compound], the GI50 in test [16] was 7.6 nM; in test [17], 10 nM; in test [18], 4.5 nM; in [19] it was 10 nM; in the test with hamster ovary cell CHO, 160 nM; in test [20], 13 nM. For the same compound, the GI50 in test [21] was 10 nM; in [22] it was 8 nM; in [23], 34 nM; in test [24] it was 11 nM; in [25], 3.6 nM; with hamster lung cell CHL it was 180 nM. In addition, the GI50 in [26] came to 9.9 nM; in test [27] it was 3.3 nM; in test [28], 11 nM.

Regarding `COCCN[C@H]1CC[C@H](Nc2cc(-c3csc(NCC4CCOCC4)n3)ccn2)CC1` [Compound 18, (1r,4r)-N^1-(2-methoxyethyl)-N^4-(4-(2-(((tetrahydro-2H-pyran-4-yl)methyl)amino)thiazol-4-yl)pyridin-2-yl)cyclohexane-1,4-diamine], the concentration for 50% growth inhibition (GI50) in [16] stood at 910 nM; in [17], 1100 nM; in [18] it was 1200 nM; in test [19] it was 1700 nM; with hamster ovary cell CHO, 4100 nM; in [20] it was 1100 nM. In addition, the GI50 was determined as 1300 nM in [21]; 980 nM in [22]; 3000 nM in test [23]; 2500 nM in [24]; 1100 nM in [25]; 1200 nM in the test on hamster lung cell CHL. Moreover, the GI50 in test [26] amounted to 4000 nM; in [27] it was 1200 nM; in test [28], 2100 nM.

The record behind these values is patent publication US10952999B2, “Inhibitor of cyclin-dependent kinase CDK9” (GENFLEET THERAPEUTICS (SHANGHAI) INC., priority 2017, dated 2021).
